In brackets after ≈: the same amount, converted by molar mass. Read-outs that look alike come from different tables or passages of the source.
What was measured:
Format in all cases: cell-based
[1] = system: Mycoplasma gallisepticum KP-13; assay: antibacterial activity against Mycoplasma; conditions: Mycoplasmoides gallisepticum, KP13; strain KP-13; Eiken PPLO Medium; read-out: MIC
Description: (§1) Furthermore the new antibiotics according to the present invention also show antimicrobial activity on Mycoplasma. In particular, it is noteworthy that they have much higher antimicrobial activity than tylosin on Mycoplasma that is resistant to macrolide antibiotics. Tab.
(§2) **Medium (Eiken PPLO Medium)

Sarcina lutea ATCC 9341 = assay: antimicrobial activity, broth dilution method; conditions: Micrococcus luteus, ATCC9341, Sarcina lutea ATCC 9341, read-out: minimum inhibitory concentration (MIC)
Description: (§3) Antimicrobial activity of the new antibiotics according to the present invention was measured on various pathogenic microorganisms by the broth dilution mehtod. Tab. […] The new antibiotics show a similar antimicrobial spectrum to that of tylosin as shown in Tab. 4. All the compounds have an excellent antimicrobial activity mainly on gram-positive bacteria. […] Test microorganisms with an asterisk mark (*) in Tab. 4 are all drug-resistant strains that were clinically isolated. More in detail, Staphylococcus aureus MS-8710 is resistant to tylosin, penicillin, tetracycline, erythromycin and leucomycin. Staphylococcus aureus MS-9931 is resistant to tylosin, penicillin, erythromycin, tetracycline, leucomycin, spiramycin and josamycin. And also Streptococcus piogenes is resistant to tylosin, erythromycin, oleandomycin and leucomycin.

[2] = system: Streptococcus pyogenes MH-771; assay: antimicrobial activity, broth dilution method; conditions: Streptococcus pyogenes, MH771, Streptococcus pyogenes MH-771, drug-resistant clinical isolate; read-out: minimum inhibitory concentration (MIC)
Description: as §3

[3] = system: Staphylococcus aureus SMITH; assay: antimicrobial activity, broth dilution method; conditions: Staphylococcus aureus, Staphylococcus aureus SMITH; broth dilution; read-out: minimum inhibitory concentration (MIC)
Description: as §3

[4] = system: Bacillus cereus ATCC 9634; assay: antimicrobial activity, broth dilution method; conditions: Bacillus cereus, ATCC9634, Bacillus cereus ATCC 9634; broth dilution; read-out: minimum inhibitory concentration (MIC)
Description: as §3

[5] = system: Staphylococcus aureus MS-9937; assay: antimicrobial activity, broth dilution method; conditions: MS9937; Staphylococcus aureus MS-9937, drug-resistant clinical isolate; read-out: minimum inhibitory concentration (MIC)
Description: as §3

[6] = system: Staphylococcus aureus MS-9931; assay: antimicrobial activity, broth dilution method; conditions: MS9931; Staphylococcus aureus MS-9931, drug-resistant clinical isolate; read-out: minimum inhibitory concentration (MIC)
Description: as §3

[7] = system: Staphylococcus aureus MS-8710; assay: antimicrobial activity, broth dilution method; conditions: Staphylococcus aureus, MS8710, Staphylococcus aureus MS-8710, drug-resistant clinical isolate; read-out: minimum inhibitory concentration (MIC)
Description: as §3

[8] = system: Staphylococcus aureus FDA-209P; assay: antimicrobial activity, broth dilution method; conditions: Staphylococcus aureus, FDA209P, Staphylococcus aureus FDA-209P; broth dilution; read-out: minimum inhibitory concentration (MIC)
Description: as §3

[9] = system: Mycoplasma gallisepticum E-5; assay: antibacterial activity against Mycoplasma; conditions: Mycoplasmoides gallisepticum, E5
Description: as §1
(§4) *Macrolide resistant strain
as §2

[10] = system: Mycoplasma gallisepticum A-72; assay: antibacterial activity against Mycoplasma; conditions: Mycoplasmoides gallisepticum, A72; strain A-72, macrolide resistant; Eiken PPLO Medium
Description: as §1, §4, §2

[11] = system: Mycoplasma gallisepticum E-11; assay: antibacterial activity against Mycoplasma; conditions: Mycoplasmoides gallisepticum, E11
Description: as §1, §4, §2

| SMILES | MIC (Sarcina lutea ATCC 9341) | MIC [2] | MIC [3] | MIC [4] | MIC [5] | MIC [6] | MIC [7] | MIC [8] | MIC [1] | MIC [9] | MIC [10] | MIC [11] | MIC ([9]; strain E-5, macrolide resistant, Eiken PPLO Medium, read-out: MIC) | MIC ([11]; strain E-11, macrolide resistant, Eiken PPLO Medium, read-out: MIC) |
| --- | --- | --- | --- | --- | --- | --- | --- | --- | --- | --- | --- | --- | --- | --- |
| CCC1OC(=O)CC(O)C(C)C(OC2OC(C)C(OC3CC(C)(O)C(OC(=O)CSC4CCCCC4)C(C)O3)C(N(C)C)C2O)C(CC=O)CC(C)C(=O)C=CC(C)=CC1COC1OC(C)C(O)C(OC)C1OC (stereo not shown) [Compound 40, 4"-cyclohexylthioacetyltylosin] | 0.39 µg/mL (≈ 0.364 µM) | 6.25 µg/mL (≈ 5.83 µM) | 0.78 µg/mL (≈ 0.727 µM) | 0.78 µg/mL (≈ 0.727 µM) | 25 µg/mL (≈ 23.3 µM) | 12.5 µg/mL (≈ 11.7 µM) | 12.5 µg/mL (≈ 11.7 µM) | 0.78 µg/mL (≈ 0.727 µM) | 0.078 µg/mL (≈ 0.0727 µM) | 0.157 µg/mL (≈ 0.146 µM) | 0.157 µg/mL (≈ 0.146 µM) | 0.157 µg/mL (≈ 0.146 µM) |  |  |
| CCC1OC(=O)CC(O)C(C)C(OC2OC(C)C(OC3CC(C)(O)C(OC(=O)CSc4ccncc4)C(C)O3)C(N(C)C)C2O)C(CC=O)CC(C)C(=O)C=CC(C)=CC1COC1OC(C)C(O)C(OC)C1OC (stereo not shown) [Compound 41, 4"-(4-pyridyl)thioacetyltylosin] | 0.19 µg/mL (≈ 0.178 µM) | 12.5 µg/mL (≈ 11.7 µM) | 0.39 µg/mL (≈ 0.365 µM) | 0.39 µg/mL (≈ 0.365 µM) | 12.5 µg/mL (≈ 11.7 µM) | 12.5 µg/mL (≈ 11.7 µM) | 12.5 µg/mL (≈ 11.7 µM) | 0.78 µg/mL (≈ 0.731 µM) | 0.039 µg/mL (≈ 0.0365 µM) |  | 0.157 µg/mL (≈ 0.147 µM) |  | 0.313 µg/mL (≈ 0.293 µM) | 0.313 µg/mL (≈ 0.293 µM) |
| CCC1OC(=O)CC(O)C(C)C(OC2OC(C)C(OC3CC(C)(O)C(OC(=O)C(C)Oc4ccccc4)C(C)O3)C(N(C)C)C2O)C(CC=O)CC(C)C(=O)C=CC(C)=CC1COC1OC(C)C(O)C(OC)C1OC (stereo not drawn) [Compound 46, 4"-α-phenoxypropionyltylosin] | 0.19 µg/mL (≈ 0.179 µM) | 12.5 µg/mL (≈ 11.7 µM) | 0.39 µg/mL (≈ 0.366 µM) | 0.39 µg/mL (≈ 0.366 µM) | 50 µg/mL (≈ 47 µM) | 25 µg/mL (≈ 23.5 µM) | 25 µg/mL (≈ 23.5 µM) | 0.78 µg/mL (≈ 0.733 µM) |  |  |  |  |  |  |
| CCC1OC(=O)CC(O)C(C)C(OC2OC(C)C(OC3CC(C)(O)C(OC(=O)COc4ccc5ccccc5c4)C(C)O3)C(N(C)C)C2O)C(CC=O)CC(C)C(=O)C=CC(C)=CC1COC1OC(C)C(O)C(OC)C1OC (stereo not drawn) [Compound 47, 4"-β-napthoxyacetyltylosin] | 0.19 µg/mL (≈ 0.173 µM) | 12.5 µg/mL (≈ 11.4 µM) | 0.78 µg/mL (≈ 0.709 µM) | 0.78 µg/mL (≈ 0.709 µM) | 25 µg/mL (≈ 22.7 µM) | 25 µg/mL (≈ 22.7 µM) | 25 µg/mL (≈ 22.7 µM) | 0.78 µg/mL (≈ 0.709 µM) |  |  |  |  |  |  |

Further compounds by falling MIC (Sarcina lutea ATCC 9341), results first:

| MIC (Sarcina lutea ATCC 9341) | MIC [2] | MIC [3] | MIC [4] | MIC [5] | MIC [6] | MIC [7] | MIC [8] | SMILES | MIC [1] | MIC [9] | MIC [10] | MIC [11] | MIC ([9]; strain E-5, macrolide resistant, Eiken PPLO Medium, read-out: MIC) | MIC ([11]; strain E-11, macrolide resistant, Eiken PPLO Medium, read-out: MIC) |
| --- | --- | --- | --- | --- | --- | --- | --- | --- | --- | --- | --- | --- | --- | --- |
| 0.19 µg/mL (≈ 0.171 µM) | 3.13 µg/mL (≈ 2.82 µM) | 0.39 µg/mL (≈ 0.352 µM) | 0.39 µg/mL (≈ 0.352 µM) | 6.25 µg/mL (≈ 5.63 µM) | 12.5 µg/mL (≈ 11.3 µM) | 6.25 µg/mL (≈ 5.63 µM) | 0.39 µg/mL (≈ 0.352 µM) | CCC1OC(=O)CC(OC(C)=O)C(C)C(OC2OC(C)C(OC3CC(C)(O)C(OC(=O)CSc4ccncc4)C(C)O3)C(N(C)C)C2O)C(CC=O)CC(C)C(=O)C=CC(C)=CC1COC1OC(C)C(O)C(OC)C1OC (stereo not shown) [Compound 42, 3-acetyl-4"-(4-pyridyl)thioacetyltylosin] |  |  |  |  |  |  |
| 0.19 µg/mL (≈ 0.181 µM) | 6.25 µg/mL (≈ 5.95 µM) | 0.39 µg/mL (≈ 0.371 µM) | 0.78 µg/mL (≈ 0.743 µM) | 25 µg/mL (≈ 23.8 µM) | 25 µg/mL (≈ 23.8 µM) | 25 µg/mL (≈ 23.8 µM) | 0.39 µg/mL (≈ 0.371 µM) | CCC1OC(=O)CC(O)C(C)C(OC2OC(C)C(OC3CC(C)(O)C(OC(=O)COc4ccccc4)C(C)O3)C(N(C)C)C2O)C(CC=O)CC(C)C(=O)C=CC(C)=CC1COC1OC(C)C(O)C(OC)C1OC (stereo not shown) [Compound 44, 4"-phenoxyacetyltylosin] |  |  |  |  |  |  |
| 0.19 µg/mL (≈ 0.174 µM) | 12.5 µg/mL (≈ 11.4 µM) | 0.39 µg/mL (≈ 0.357 µM) | 0.39 µg/mL (≈ 0.357 µM) | 25 µg/mL (≈ 22.9 µM) | 25 µg/mL (≈ 22.9 µM) | 100 µg/mL (≈ 91.6 µM) | 0.39 µg/mL (≈ 0.357 µM) | CCC1OC(=O)CC(OC(C)=O)C(C)C(OC2OC(C)C(OC3CC(C)(O)C(OC(=O)COc4ccccc4)C(C)O3)C(N(C)C)C2O)C(CC=O)CC(C)C(=O)C=CC(C)=CC1COC1OC(C)C(O)C(OC)C1OC (stereo not shown) [Compound 45, 3-acetyl-4"-phenoxyacetyltylosin] |  |  |  |  |  |  |

Source: patent US4205163A, “Tylosin derivatives” (Sanraku-Ocean Co., Ltd., priority 1977, dated 1980)
